Reference: patent publication US20220202017A1, “MESOIONIC IMIDAZOLIUM COMPOUNDS AND DERIVATIVES FOR COMBATING ANIMAL PESTS” (BASF SE, priority 2019, published 2022)
Where two headings read alike, the source gives them in different places.

Tests used:
Assay type in all cases: in vivo
Megoura viciae = assay: Vetch aphid (Megoura viciae) control through contact or systemic means, broad bean leaf disks; conditions: foliar, 120 h, read-out: mortality in comparison with untreated controls (aphid mortality)
Procedure: Vetch Aphid (Megoura viciae)
For evaluating control of vetch aphid (Megoura viciae) through contact or systemic means the test unit consisted of 24-well-microtiter plates containing broad bean leaf disks.
The compounds were formulated using a solution containing 75% v/v water and 25% v/v DMSO. Different concentrations of formulated compounds were sprayed onto the leaf disks at 2.5 μl, using a custom built micro atomizer, at two replications. After application, the leaf disks were air-dried and 5-8 adult aphids placed on the leaf disks inside the microtiter plate wells. The aphids were then allowed to suck on the treated leaf disks and incubated at about 23±1° C. and about 50±5% relative humidity for 5 days. Aphid mortality and fecundity was then visually assessed.

Myzus persicae = assay: Green peach aphid (Myzus persicae) control through systemic means, artificial diet under membrane; conditions: 72 h, read-out: mortality in comparison with untreated controls (aphid mortality)
From the text: Green Peach Aphid (Myzus persicae)
For evaluating control of green peach aphid (Myzus persicae) through systemic means the test unit consisted of 96-well-microtiter plates containing liquid artificial diet under an artificial membrane. The compounds were formulated using a solution containing 75% v/v water and 25% v/v DMSO. Different concentrations of formulated compounds were pipetted into the aphid diet, using a custom built pipetter, at two replications. After application, 5-8 adult aphids were placed on the artificial membrane inside the microtiter plate wells. The aphids were then allowed to suck on the treated aphid diet and incubated at about 23±1° C. and about 50±5% relative humidity for 3 days. Aphid mortality and fecundity was then visually assessed.

Anthonomus grandis = assay: Boll weevil (Anthonomus grandis) control, 96-well microtiter plate with insect diet and eggs; conditions: 120 h, sprayed onto insect diet, 5 days, visually assessed, read-out: mortality in comparison with untreated controls (egg and larval mortality)
Procedure: Boll Weevil (Anthonomus grandis)
(§1) For evaluating control of boll weevil (Anthonomus grandis) the test unit consisted of 96-well-microtiter plates containing an insect diet and 5-10 A. grandis eggs. The compounds were formulated using a solution containing 75% v/v water and 25% v/v DMSO. Different concentrations of formulated compounds were sprayed onto the insect diet at 5 μl, using a custom built micro atomizer, at two replications. After application, microtiter plates were incubated at about 25±1° C. and about 75±5% relative humidity for 5 days. Egg and larval mortality was then visually assessed.

Heliothis virescens = assay: Tobacco budworm (Heliothis virescens) control, 96-well microtiter plate with insect diet and eggs; conditions: 120 h, sprayed onto insect diet, 5 days, visually assessed, read-out: mortality in comparison with untreated controls (egg and larval mortality)
Procedure: Tobacco Budworm (Heliothis virescens)
as §1, with “of tobacco budworm (Heliothis virescens)” for “of boll weevil (Anthonomus grandis)”, “and 15-25 H. virescens” for “and 5-10 A. grandis”, “at 10” for “at 5”, “about 28±1°” for “about 25±1°”, “about 80±5%” for “about 75±5%”

[1] = 2500 ppm, sprayed onto leaf disks, 5 days, visually assessed
[2] = 2500 ppm, pipetted into aphid diet, 3 days, visually assessed

## C[n+]1c([O-])c(C(=O)C(=O)OCC(F)(F)F)n2c1SC[C@@H]2c1cnc(Cl)s1 [Compound C-9]
Megoura viciae; [1]
  mortality at 2500 ppm: > 75%
Myzus persicae; [2]
  mortality at 2500 ppm: > 75%

## CC(=O)c1c([O-])[n+](C)c2n1C(c1cnc(Cl)s1)CS2 (centres unmarked) [Compound C-2]
Megoura viciae
  mortality at 2500 ppm: > 75%
Myzus persicae
  mortality at 2500 ppm: > 75%

## CC[n+]1c([O-])c(C(=O)C(=O)OCC(F)(F)F)n2c1SCC2c1ccc(Cl)nc1 (centres unmarked) [Compound C-10]
Megoura viciae
  mortality at 2500 ppm: > 75%
Myzus persicae
  mortality at 2500 ppm: > 75%

## CC[n+]1c([O-])c(C(C)=O)n2c1SCC2c1ccc(Cl)nc1 (centres unmarked) [Compound C-8]
Anthonomus grandis
  mortality at 2500 ppm: > 75%
Megoura viciae
  mortality at 2500 ppm: > 75%
Myzus persicae
  mortality at 2500 ppm: > 75%

## C[n+]1c([O-])c(C(=O)C(F)F)n2c1SCC2c1cnc(Cl)s1 (centres unmarked) [Compound C-3]
Megoura viciae
  mortality at 2500 ppm: > 75%
Myzus persicae
  mortality at 2500 ppm: > 75%
Heliothis virescens
  mortality at 2500 ppm: > 75%

## CC[n+]1c([O-])c(C(=O)c2cccs2)n2c1SCC2c1ccc(Cl)nc1 (centres unmarked) [Compound C-7]
Anthonomus grandis
  mortality at 2500 ppm: > 75%
Megoura viciae
  mortality at 2500 ppm: > 75%
Myzus persicae
  mortality at 2500 ppm: > 75%

## CCOC(=O)C(=O)C1=C(O)N(C)C2N(C)CC(c3cnc(Cl)s3)N12 (centres unmarked) [Compound C-12]
Anthonomus grandis
  mortality at 2500 ppm: > 75%
Myzus persicae
  mortality at 2500 ppm: > 75%
Heliothis virescens
  mortality at 2500 ppm: > 75%

## CCn1c([O-])c(C(=O)c2ccccc2)[n+]2c1SCC2c1ccc(Cl)nc1 (centres unmarked) [Compound C-1, 5-benzoyl-3-(6-chloro-3-pyridyl)-7-ethyl-2,3-dihydroimidazo[2,1-b]thiazol-4-ium-6-olate]
Megoura viciae
  mortality at 2500 ppm: > 75%
Myzus persicae
  mortality at 2500 ppm: > 75%

## C[n+]1c([O-])c(C(=O)c2ccccc2)n2c1SCC2CC#N (centres unmarked) [Compound C-4]
Megoura viciae; [1]
  mortality at 2500 ppm: > 75%
Myzus persicae; [2]
  mortality at 2500 ppm: > 75%

## CC[n+]1c([O-])c(C(=O)C(F)(F)C(F)(F)F)n2c1SCC2c1ccc(Cl)nc1 (centres unmarked) [Compound C-6]
Anthonomus grandis
  mortality at 2500 ppm: > 75%
Megoura viciae
  mortality at 2500 ppm: > 75%
Myzus persicae
  mortality at 2500 ppm: > 75%
Heliothis virescens
  mortality at 2500 ppm: > 75%
